Data reported in US20080039515A1, “Arylpyrazoles And Methods Of Using Same For Control Of Insect Pests That Bore Into Trees” (The Texas A&M University System, priority 2004, published 2008).

Test system: Ips engraver beetles
Assay: Trial 2 single-tree protection study: Ips attack, tree mortality and gallery construction on standing loblolly pine
Type: in vivo
Set-up: Length of Egg Galleries Total: unit not given here
Conditions: for trees with early signs of fading crowns (number of 6 trees): 24 days after initial pheromone deployment; for Length of Egg Galleries Total / Length of Egg Galleries With Brood / Length of Egg Galleries With Brood % of Total / Length of Egg Galleries Without Brood / Length of Egg Galleries Without Brood % of Total / Number of Egg Galleries Total / Number of Egg Galleries With Brood % of Total / Number of Egg Galleries With Brood No. / Number of Egg Galleries Without Brood % of Total / Number of Egg Galleries Without Brood No. / Nuptial Chambers With Egg Galleries % of Total / Nuptial Chambers With Egg Galleries No. / Nuptial Chambers Without Egg Galleries % of Total / Nuptial Chambers Without Egg Galleries No. / Total Nuptial Chambers: logs cut after tree mortality or end of trial; for Mean # of Ips caught/trap / Number of Attacks/0.3 m bole section at 3 m after 24 days: Ips: standing loblolly pine; for Number of Attacks/0.3 m bole section at 3 m after 24 days: Ips: 24 days after pheromone deployment
Protocol: Study Sites: Two 20-year-old, recently thinned loblolly pine plantations were selected in Texas. Trees in one plantation were injected for use in a bolt study (Trial 1). Trees in ½ acre section of the second plantation were injected as part of a single-tree protection study (Trial 2). A staging area also was set up in the second plantation where bolts from the first plantation were exposed to bark beetles and wood borers.
Population Monitoring: A clear panel of acetate (10 cm wide by 25 cm long) was attached to the center of each bolt after deployment of bolts or 2 m high on standing trees after deployment of pheromone baits to monitor arrival of bark beetles. The top surface of each panel was coated entirely with Stikem Special® trapping compound (Michel and Pelton, Emeryville, Calif.). The traps were left in place for two weeks.
Trial 2: Loblolly pine, 15-20 cm (=6-9 inch) DBH, also were selected in March of the study year in a recently thinned 20-year-old pine stand in east Texas. Each treatment (the same as those used in Trial 1) was injected into four cardinal points about 0.3 m above the ground on each of 6 trees in April (16th-23rd) using the Arborjet Tree IV™ system.
After 5 weeks post-injection (May 28), frills were cut with a hatchet into the sapwood between the injection points near the base of the tree. A cellulose. sponge was inserted into each cut and loaded with I0 ml of a 4:1 mix of sodium N-methyldithiocarbamate (MS) (Woodfume®; Osmose, Inc., Buffalo, N.Y.) plus dimethyl sulfoxide (DMSO) (Aldrich Chemical) (Roton 1987, Strom et al. 2004). […] The intent was to stress the tree and make it susceptible to attack by bark beetles without killing it. Pheromone packets containing racemic ipsdienol+lanerione, ipsenol or cis-verbenol were attached (June 7) atop 3 m stakes evenly spaced in between and around the study trees to encourage attack by the three Ips engraver species. […] The baits were changed every 4 weeks.
Trial 2. […] All visible Ips attacks and cerambycid egg niches were counted within the marked area. The number of trees with fading crowns also was recorded. Thereafter, the trees were evaluated weekly for crown fading. When mortality did occur, the trees were felled and two bolts taken and evaluated for attack success and gallery length as described in Trial 1. […] Treatment efficacy was determined by comparing tree survival, beetle attacks and egg gallery length on treated and untreated bolts. As before, data were transformed and analyzed by GLM and the Fisher's Protected LSD test using the Statview statistical program.

[1] = After 24 days from pheromone bait deployment

O=[N+]([O-])NC1=NCCN1Cc1ccc(Cl)nc1 [Imid]
trees with early signs of fading crowns (number of 6 trees): 3 of 6 | Pct of Trees w/Fading Crowns [1]: 50.0 Pct | Pct of Trees w/Fading Crowns (After 32 days): 83.3 Pct | Pct of Trees w/Fading Crowns (After 39 days): 83.3 Pct | Pct of Trees w/Fading Crowns (After 46 days): 83.3 Pct | Pct of Trees w/Fading Crowns (After 52 days): 100.0 Pct | Pct of Trees w/Fading Crowns (After 59 days): 100.0 Pct | Pct of Trees w/Fading Crowns (After 66 days): 100.0 Pct | Length of Egg Galleries Total (bolt height 3 m): 301.5 | Length of Egg Galleries With Brood (bolt height 3 m): 121.7 cm | Length of Egg Galleries With Brood % of Total (bolt height 3 m): 40.4% | Length of Egg Galleries Without Brood (bolt height 3 m): 179.8 cm | Length of Egg Galleries Without Brood % of Total (bolt height 3 m): 59.6% | Number of Egg Galleries Total (bolt height 3 m): 38.2 | Number of Egg Galleries With Brood % of Total (bolt height 3 m): 28.8% | Number of Egg Galleries With Brood No. (bolt height 3 m): 11.0 | Number of Egg Galleries Without Brood % of Total (bolt height 3 m): 71.2% | Number of Egg Galleries Without Brood No. (bolt height 3 m): 27.2 | Nuptial Chambers With Egg Galleries % of Total (bolt height 3 m): 98.0% | Nuptial Chambers With Egg Galleries No. (bolt height 3 m): 8.0 | Nuptial Chambers Without Egg Galleries % of Total (bolt height 3 m): 2.0% | Nuptial Chambers Without Egg Galleries No. (bolt height 3 m): 0.2 | Total Nuptial Chambers (bolt height 3 m): 8.2 | Length of Egg Galleries Total (bolt height 8 m): 217.5 | Length of Egg Galleries With Brood (bolt height 8 m): 115.5 cm | Length of Egg Galleries With Brood % of Total (bolt height 8 m): 53.1% | Length of Egg Galleries Without Brood (bolt height 8 m): 102.0 cm | Length of Egg Galleries Without Brood % of Total (bolt height 8 m): 46.9% | Number of Egg Galleries Total (bolt height 8 m): 33.2 | Number of Egg Galleries With Brood % of Total (bolt height 8 m): 42.7% | Number of Egg Galleries Without Brood % of Total (bolt height 8 m): 57.3% | Number of Egg Galleries Without Brood No. (bolt height 8 m): 19.0 | Nuptial Chambers With Egg Galleries % of Total (bolt height 8 m): 78.7% | Nuptial Chambers With Egg Galleries No. (bolt height 8 m): 9.8 | Nuptial Chambers Without Egg Galleries % of Total (bolt height 8 m): 21.3% | Nuptial Chambers Without Egg Galleries No. (bolt height 8 m): 2.7 | Total Nuptial Chambers (bolt height 8 m): 12.5 | Mean # of Ips caught/trap: 8.5 | Number of Attacks/0.3 m bole section at 3 m after 24 days: Ips: 12.7 | trees died due to bark beetle attack (standing trees, after 66 days): 100%

N#Cc1nn(-c2c(Cl)cc(C(F)(F)F)cc2Cl)c(N)c1[S+]([O-])C(F)(F)F (stereo not drawn) [Fip, 5-amino-3-cyano-1-(2,6-dichloro-4-trifluoromethylphenyl)-4-trifluoromethylsulfinylpyrazole]
trees with early signs of fading crowns (number of 6 trees): None | Pct of Trees w/Fading Crowns [1]: 0.0 Pct | Pct of Trees w/Fading Crowns (After 32 days): 0.0 Pct | Pct of Trees w/Fading Crowns (After 39 days): 0.0 Pct | Pct of Trees w/Fading Crowns (After 46 days): 0.0 Pct | Pct of Trees w/Fading Crowns (After 52 days): 0.0 Pct | Pct of Trees w/Fading Crowns (After 59 days): 0.0 Pct | Pct of Trees w/Fading Crowns (After 66 days): 0.0 Pct | Length of Egg Galleries Total (bolt height 3 m): 6.0 | Length of Egg Galleries With Brood (bolt height 3 m): 2.5 cm | Length of Egg Galleries With Brood % of Total (bolt height 3 m): 41.7% | Length of Egg Galleries Without Brood (bolt height 3 m): 3.5 cm | Length of Egg Galleries Without Brood % of Total (bolt height 3 m): 58.3% | Number of Egg Galleries Total (bolt height 3 m): 1.2 | Number of Egg Galleries With Brood % of Total (bolt height 3 m): 14.3% | Number of Egg Galleries With Brood No. (bolt height 3 m): 0.2 | Number of Egg Galleries Without Brood % of Total (bolt height 3 m): 85.7% | Number of Egg Galleries Without Brood No. (bolt height 3 m): 1.0 | Nuptial Chambers With Egg Galleries % of Total (bolt height 3 m): 18.9% | Nuptial Chambers With Egg Galleries No. (bolt height 3 m): 1.2 | Nuptial Chambers Without Egg Galleries % of Total (bolt height 3 m): 81.1% | Nuptial Chambers Without Egg Galleries No. (bolt height 3 m): 5.0 | Total Nuptial Chambers (bolt height 3 m): 6.2 | Length of Egg Galleries Total (bolt height 8 m): 22.7 | Length of Egg Galleries With Brood (bolt height 8 m): 2.5 cm | Length of Egg Galleries With Brood % of Total (bolt height 8 m): 11.0% | Length of Egg Galleries Without Brood (bolt height 8 m): 20.2 cm | Length of Egg Galleries Without Brood % of Total (bolt height 8 m): 89.0% | Number of Egg Galleries Total (bolt height 8 m): 7.7 | Number of Egg Galleries With Brood % of Total (bolt height 8 m): 6.5% | Number of Egg Galleries With Brood No. (bolt height 8 m): 0.5 | Number of Egg Galleries Without Brood % of Total (bolt height 8 m): 93.5% | Number of Egg Galleries Without Brood No. (bolt height 8 m): 7.2 | Nuptial Chambers With Egg Galleries % of Total (bolt height 8 m): 66.7% | Nuptial Chambers With Egg Galleries No. (bolt height 8 m): 3.0 | Nuptial Chambers Without Egg Galleries % of Total (bolt height 8 m): 33.3% | Nuptial Chambers Without Egg Galleries No. (bolt height 8 m): 1.5 | Total Nuptial Chambers (bolt height 8 m): 4.5 | Mean # of Ips caught/trap: 5.2 | Number of Attacks/0.3 m bole section at 3 m after 24 days: Ips: 1.3 | tree survival (standing trees, end of trial (66 days)): survived
